Measurements as given in patent publication US4863902A, “Treatment of cancer” (Wakunaga Seiyaku Kabushiki Kaisha, priority 1985, dated 1989).

How the values were obtained:
[1] = test system: MX-1 (human breast cancer); assay: Tumor weight of transplanted human breast cancer in nude mice; type: in vivo, mouse (human tumor xenograft); conditions: Table 4, adriamycin 10 mg/Kg, hEGF 100 μg/Kg on days 1, 8, 10 and 13, average ± standard error of 8 mice
Description: After BALB/c AJcl-nu strain male nude mice were preliminarily fed for one week in an aseptic clean rack maintained at a constant temperature, (23±0.5°
C.) and a constant humidity (60±5%), those which appeared to be healthy weighing around 20 g were provided for the present experiment in 8 mice per group. The mice employed in the present experiments hereinafter were fed under the above environment.
MX-1 (human breast cancer) was cut into sizes of about 1 mm square and transplanted subcutaneously on the right side of mouse axilla by a cell transplanting needle (trocker). 17 days after transplantation, the size of tumor, namely the longer diameter (a mm) and shorter diameter (b mm) were measured and the tumor weight was calculated by the following formula similarly as for Colon 26.
(§1) Tumor weight (mg)=ab^2 /2
Before carrying out experiments, tumor weights were measured immediately before administration of the compounds (the day 17 after tumor transplantation) and the mice were grouped into 3 groups by use of random numbers so that there may be no difference in average value of the tumor weights on initiation of experiments between the respective groups to make even the average values of tumor weights of the respective groups, and thereafter the compounds were administered to the respective groups.
Administration of the compounds was conducted 4 times as the total on the day 1, the day 8, the day 10 and the day 13. The test solutions were as shown below.

receptor = receptor (Homo sapiens, UniProt P00533); conditions: J. Biol. Chem., 247, 7659 (1972); cited from earlier work
[2] = test system: Colon adenocarcinoma 38 (mouse colon adenocarcinoma); assay: Tumor weight of transplanted Colon adenocarcinoma 38 in C57BL/6 mice; type: in vivo; conditions: for antitumor effect of (a) + (b) (quantity not headed; method of Experimental Example 4): Table 21
Description: Colon adenocarcinoma 38 (mouse colon adenocarcinoma) was minced into pieces and about 0.1 to 0.2 ml thereof was transplanted subcutaneously on the right side of mouse abdomen by a cell transplanting needle (trocker). Eleven days after transplantation, the size of tumor, namely longer diameter (a mm) and shorter diameter (b mm) of tumor were measured and the tumor weight was calculated according to the formula shown below [Instruction 14 (NCI) 1980].
as §1
In the Table, days indicate the experimental days with the day of compound administration being as the day 1, and the tumor weight immediately before administration of compound of day 1 is made 100. The respective values show the average value ± standard error of case numbers of 10 to 20, in the Table, the marks of (*), * and *** indicate the statistical significance difference of the combined administration group relative to the 5-FU single administration group (the definition of P is as defined above).

[3] = test system: Colon adenocarcinoma 26 (mouse colon adenocarcinoma); assay: Tumor weight of transplanted Colon adenocarcinoma 26 in BALB/c mice; type: in vivo; conditions: for antitumor effect potentiating action, same experiment as Experimental Example 13: in combination with cyclophosphamide in place of 5-FU
Description: After BALB/c mice were preliminarily fed in a thermostat (23°±0.5° C.), humidistat (60±5%) room for 1 week, those which appear to be healthy weighing 18-20 g were provided for the present experiment in 6-12 mice per 1 group.
Colon adenocarcinoma 26 (mouse colon adenocarcinoma) was minced into pieces and about 0.1 to 0.2 ml thereof was transplanted subcutaneously on the right side of mouse abdomen by a cell transplanting needle (trocker). Six days after transplantation, the size of tumor, namely longer diameter (a mm) and shorter diameter (b mm) of tumor were measured and the tumor weight was calculated according to the formula shown below [Instruction 14 (NCI) 1980].
as §1
Before carrying out experiments, tumor weights were measured immediately before administration of the compounds and the mice were grouped into 3 groups by use of random numbers so that there may be no difference in average value of the tumor weights on initiation of experiments between the respective groups to make even the average values of tumor weights of the respective groups, and thereafter the compounds were administered to the respective groups.
In this FIGURE, the axis of abscissa indicates the experimental days with the day of compound administration being the day 1, and the axis of ordinate indicates tumor cell growth ratio which is the ratio of the tumor weight after elapse of the respective days relative to the tumor weight on the day 1 as being 100%.

[4] = test system: mouse ovarian tumor M5076; assay: Tumor weight of solid tumor of mouse ovarian tumor in BDF1 mice; type: in vivo; conditions: used together with mytomycin C in place of cisplatin
Description: BDF1 male mice were employed. The feeding conditions were the same as in Experimental Example 1.
Mouse ovarian tumor M5076 was transplanted subcutaneously at the axialla of mouse in 1-2×10^6 cells per mouse. 12 days after transplantation, the size of tumor was measured according to the same method as in Experimental Example 1 (Colon 26) and the tumor weight was calculated.
The grouping operation on initiation of Experiments was conducted in the same manner as in Experimental Example 1. The compounds were administered in the same manner as in Experimental Example 9.
The experiment was carried out in the samme manner as in Experimental Examples 1, 7 and as in Experimental Example 17 for others.

[5] = (a) Adriamycin, Mixed injection
[6] = (a) Adriamycin, Separate injection
[7] = (a) Cisplatin, Separate injection

Row | Compound | Tumor weight (day 1 = 100) ([1]; day 4) | Tumor weight (day 1 = 100) ([1]; day 7) | Tumor weight (day 1 = 100) ([1]; day 11) | Tumor weight (day 1 = 100) ([1]; day 14) | binding ability of receptor or biological activity (receptor) | antitumor effect of (a) + (b) (quantity not headed; method of Experimental Example 4) [2, 5] | antitumor effect of (a) + (b) (quantity not headed; method of Experimental Example 4) [2, 6] | antitumor effect of (a) + (b) (quantity not headed; method of Experimental Example 4) ([2]; (a) Cisplatin, Mixed injection) | antitumor effect of (a) + (b) (quantity not headed; method of Experimental Example 4) [2, 7] | antitumor effect of (a) + (b) (quantity not headed; method of Experimental Example 4) ([2]; (a) Tegafur, Mixed injection) | antitumor effect of (a) + (b) (quantity not headed; method of Experimental Example 4) ([2]; (a) Tegafur, Separate injection) | tumor cell growth inhibition, same experiment as Experimental Example 4 ([2]; used in place of hEGF in combination with 5-FU) | tumor cell growth inhibition, same experiment as Experimental Example 14 ([2]; used in place of hEGF in combination with Tegafur) | antitumor effect potentiating action, same experiment as Experimental Example 13 [3] | antitumor action potentiating effect, same experiment as Experimental Example 8 ([3]; used in place of hEGF in combination with 5 mg/Kg cisplatin) | antitumor effect potentiation, same experiment as Experimental Example 17 [4]
1 | COc1cccc2c1C(=O)c1c(O)c3c(c(O)c1C2=O)C[C@@](O)(C(=O)CO)C[C@@H]3O[C@H]1C[C@H](N)[C@H](O)[C@H](C)O1 [Adriamycin, adriamycin] | 162.0 ± 5.4 | 221.8 ± 20.1 | 291.8 ± 21.3 | 256.9 ± 12.7 |  |  |  |  |  |  |  |  |  |  |  | 
2 | hEGF-II: fragment lacking two amino acid residues on the C-terminal side of hEGF (NSDSECPLSHDGYCLHDGVCMYIEALDKYACNCVVGYIGERCQYRDLKWWE; not fully specified; Epidermal growth factor; UniProt P01133 971-1021, looked up, fragment) |  |  |  |  | the same as hEGF | 105.6 | 103.3 | 102.3 | 96.6 | 47.8 | 42.8 | the same results | the same results | the same results | the same results | the same results
3 | hEGF: human epidermal growth factor/urogastrone, 53 amino acid residues, three disulfide bonds |  |  |  |  |  | 103.1 | 98.5 | 88.8 | 80.3 |  |  |  |  | the same results |  | the same results
